Values joined by “and” are separate entries in the source; they are usually repeats but may differ in a detail not shown here. Equal values may be shown once. Read-outs that look alike come from different tables or passages of the source.
What was measured:
GST-Bcl-B [1] = target: T1, GST-Bcl-B (Homo sapiens, UniProt Q9HD36); test: Bcl-B/FITC-TR3-r8 fluorescence polarization competition (displacement) assay, HTS and dose-response; conditions: for Bcl-B H Coefficient: Hill coefficient of Bcl-B dose-response curve
T1 sequence (Q9HD36 1-182 limits assumed): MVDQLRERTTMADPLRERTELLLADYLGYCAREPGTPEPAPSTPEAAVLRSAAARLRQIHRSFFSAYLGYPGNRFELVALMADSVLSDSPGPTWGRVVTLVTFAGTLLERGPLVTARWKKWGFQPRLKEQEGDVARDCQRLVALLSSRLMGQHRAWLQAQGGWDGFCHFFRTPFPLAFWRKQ

GST-Bcl-B [2] = target: T1, GST-Bcl-B; test: biochemical
[3] = Table 8, NCI Structural library, Binding Assay, FP, Concentration 0.02 uM
[4] = read-out: Result Value (Result Type % Inhibition), BCL-b/TR3
[5] = Table 7, NCI Mechanistic library, Binding Assay, FP, Concentration 0.02 uM

Compound	inhibition at 0.02 µM (GST-Bcl-B [1]; [4]) [%]	Is Hit (GST-Bcl-B [1]; [5])	IC50 (GST-Bcl-B [2])	Bcl-B H Coefficient (GST-Bcl-B [1])	other results
CCOc1ccc2nc3cc(/N=N/c4ccc(N)nc4N)ccc3c(N)c2c1.Cl [Compound 354961]	150	–	–	–	F Ratio (GST-Bcl-B [1]; [3]): 1.1279; Is Hit (GST-Bcl-B [1]; [3]): Yes
CCN(CC)Cc1cc(/N=N/c2c(O)ccc3c(/N=N/c4ccc(O)c(CN(CC)CC)c4)c(O)ccc23)ccc1O [Compound 359463]	94.9	Yes	–	–	F Ratio (GST-Bcl-B [1]; [5]): 0.08773
O=C1c2cccc(NCCCNCCO)c2C(=O)c2cccc(NCCCNCCO)c21 [Compound 363998]	115	Yes	–	–	F Ratio (GST-Bcl-B [1]; [5]): 0.2213
Ic1ccc2c(c1)N(c1ccccc1)c1cc(Nc3ccc4nc5ccc(I)cc5[n+](-c5ccccc5)c4c3)ccc1N2 [Compound 402959]	61.8	–	–	–	F Ratio (GST-Bcl-B [1]; [3]): 0.6261; Is Hit (GST-Bcl-B [1]; [3]): Yes
COc1ccc2c(c1)-c1nn(CCCN(C)C)c3ccc([N+](=O)[O-])c(c13)N2 [Compound 627168]	–	Yes	–	–	F Ratio (GST-Bcl-B [1]; [5]): 0.1807; inhibition at 0.02 µM (GST-Bcl-B [1]; read-out: Result Value (Result Type % Inhibition), BCL-b/TR3, Table 7, NCI Mechanistic library, Binding Assay, FP, Concentration 0.02 uM): 64.4%
O=S(=O)(O)c1cc(/N=N/c2cc(S(=O)(=O)O)c3cccnc3c2O)ccc1/C=C/c1ccc(/N=N/c2cc(S(=O)(=O)O)c3cccnc3c2O)cc1S(=O)(=O)O [Compound 635352]	94	Yes	–	–	F Ratio (GST-Bcl-B [1]; [5]): 0.04471
O=C1C=C(N2CCNCC2)C(=O)c2c(O)ccc(O)c21 [Compound 658144]	–	Yes	–	–	–
O=C1C(Br)=C(N2CCN(CCOCCO)CC2)C(=O)c2c(O)ccc(O)c21 [Compound 659999]	–	Yes	–	–	–
O=C1C=C(NCCc2cc(Br)c(O)c(Br)c2)C(=O)c2ncccc21 [Compound 668394]	81.8	–	–	–	F Ratio (GST-Bcl-B [1]; [3]): 0.1777; Is Hit (GST-Bcl-B [1]; [3]): Yes
CN(C)CCc1c2c(nc3ccccc13)C(=O)c1cccnc1C2=O [Compound 680734]	82.6	Yes	–	–	F Ratio (GST-Bcl-B [1]; [5]): 0.1433
CN(C)c1ccc(/C=c2\c3n(c4ccccc24)N(C)C(c2ccc(Cl)cc2)C=3)cc1.O=S(=O)(O)C(F)(F)F (stereo not drawn) [Compound 699479]	60.6	Yes	–	–	F Ratio (GST-Bcl-B [1]; [5]): 0.1793
Cc1ccc(C(=O)c2coc3c2C(=O)C(=O)C(Cl)=C3Cl)cc1 [Compound 5169132]	–	–	6.17 µM	1.432	–
CN(C)c1ccc(NC(=O)/C=C\C(=O)O)cc1 [Compound 5374579]	–	–	20.4 µM	2.167	–
Cc1ccc2oc3cc(NCCCN(C)C)c4c(=O)c5ccccc5c(=O)c4c3[nH]c2c1 [Compound 5468863]	–	–	0.673 µM	1.907	–
C(=N\c1ccc(/N=C/c2ccccn2)cc1)/c1ccccc1 [Compound 5491977]	–	–	4.4 µM and 4.39 µM	1.819	–
COc1ccc(Nc2ccc(N)cc2)cc1 [Compound 5529774]	–	–	7.22 µM	2.718	–
O=C1C(=Cc2cn(Cc3ccc(Cl)cc3)c3ccccc23)C(=O)c2ccccc21 [Compound 5603089]	–	–	14.4 µM	1.917	–

Second part, led by results:

inhibition at 0.02 µM (GST-Bcl-B [1]; [4]) [%]	Is Hit (GST-Bcl-B [1]; [5])	IC50 (GST-Bcl-B [2])	Bcl-B H Coefficient (GST-Bcl-B [1])	Compound	other results
120	–	–	–	N=C(N)c1ccc(/N=N/c2c(O)ccc3c2[nH]c2ccccc23)cc1 [Compound 357777]	F Ratio (GST-Bcl-B [1]; [3]): 0.06989; Is Hit (GST-Bcl-B [1]; [3]): Yes
–	–	5.7 µM	3.214	O=C1C=CC(=O)C(/C(=C/NCc2ccccc2)[N+](=O)[O-])=C1 [Compound 5261378]	–
–	–	1.05 µM	2.075	Nc1ccc(S(=O)(=O)O)c2cccc(O)c12 [Compound 5265894]	–
–	–	1.68 µM	3.03	O=C1C=CC2=C3Oc4c(ccc5cc(O)ccc45)C(c4ccccc4C(=O)O)C3C=CC2=C1 (stereo not drawn) [Compound 5466725]	–
–	–	1.75 µM	1.336	O=C(O)c1ccc2c(c1)C1C=CCC1C(c1cccc([N+](=O)[O-])c1)N2 (stereo not drawn) [Compound 5475298]	–
–	–	1.35 µM and 1.34 µM	2.127	COc1ccc(OC)c(C=NNC(=O)C2C=CN(CC(=O)c3ccccc3)C=C2)c1 [Compound 5483976]	–
–	–	6.24 µM	18.57	COc1ccccc1NC(=O)C1=C(C)NC(SCC(=O)c2ccc(Br)cc2)=C(C#N)C1c1ccco1 (stereo not drawn) [Compound 5570547]	–
–	–	5.41 µM	1.735	O=C(O)c1cccc2c1NC(c1ccc([N+](=O)[O-])cc1)C1CC=CC21 (stereo not drawn) [Compound 5585430]	–
–	–	17.4 µM	1.821	COC(=O)C1=C(C)N(C)C(=O)NC1c1cc2c(cc1[N+](=O)[O-])OCO2 (stereo not drawn) [Compound 5607960]	–

Reference: patent publication US20090118135A1, “METHODS AND COMPOUNDS FOR REGULATING APOPTOSIS” (The Burnham Institute, priority 2007, published 2009)
